Values after ≈ are worked out from the molar mass of the structure shown.

For this series the following is noted: buffer; pH 7.4; 200.0 µM.
One may read the solubility (kinetic) as solubility judged after dilution from a stock solution rather than from solid. `COCCNC(=O)Cn1cc(/C=C(\C#N)C(=O)NC2CC2)c2ccccc21` returned a kinetic solubility of over 55 µg/mL.
Compound `COc1ccc(CNC(=O)C2(CC(=O)NC(C)(C)C)CCCC2)cc1` came in with a kinetic solubility of over 52 µg/mL.
`CC1(NC(=O)Cc2csc(-c3ccc(Cl)cc3)n2)CCS(=O)(=O)C1` (configuration not stated) gave a solubility (kinetic) of over 57.7 µg/mL.
The compound `Cc1cc(=O)c(C(=O)O)nn1-c1ccccc1Cl` returned a solubility (kinetic) of over 39.7 µg/mL.
As for `O=C(c1ccc(F)cc1)c1ccc(OCC(=O)N2CCOCC2)cc1`, the figure is over 51.5 µg/mL; as for `COc1cccc(NC(=O)NCCCCc2ccccc2)c1`, 12.9 µg/mL (≈ 43.2 µM); as for `NS(=O)(=O)c1ccc(Sc2ccc3ccccc3c2)nc1`, 2.1 µg/mL (≈ 6.64 µM).
Compound `COC(=O)C1CCN(Cc2nnc(-c3ccccc3)o2)CC1` displayed a solubility (kinetic) of over 45.2 µg/mL.
On to `CN(CC(=O)Nc1cccc(F)c1)CC(=O)Nc1ccccc1-c1ccccc1`, for which the kinetic solubility was found to be 17.3 µg/mL (≈ 44.2 µM).
For the compound `Fc1ccc(CCNC(=S)Nc2ccc(F)c(Cl)c2)cc1`, the kinetic solubility stood at 23.9 µg/mL (≈ 73.1 µM).
Take `Nc1c(Cl)cc(Cl)cc1C(=O)OCC(=O)N1CCOCC1`: the kinetic solubility was over 50 µg/mL.
As for `N#Cc1ccc(CN2CCN(C(=O)C3CC(=O)N(c4ccccc4F)C3)CC2)cc1` (configuration not stated), the kinetic solubility was over 61 µg/mL.
As for `Cc1cc(C)c(OCC(=O)OCC(=O)NC2CCCCCCC2)c(C)c1`, the figure is 23.5 µg/mL (≈ 65 µM); as for `O=C(Nc1ccc2c(c1)C(=O)OC2)c1ccc(Cl)cc1`, under 0.6 µg/mL.
For the compound `COCC(=O)N1CCCC(N(C)CCc2ccc(OC)c(OC)c2)C1` (configuration not stated), the solubility (kinetic) was over 52.6 µg/mL.
`COc1cccc(-c2nc3ccc(N4CCN(C)CC4)cc3[nH]2)c1`: the solubility (kinetic) was 14.5 µg/mL (≈ 45 µM).
In turn, `O=C(c1ccccc1)N1CCN(S(=O)(=O)N2CCCCCC2)CC1` showed a solubility (kinetic) of over 52.7 µg/mL.
The compound `C=C(C)[C@@H]1CC=C(CN2CCC(CCOC)(C(=O)OCC)CC2)CC1` displayed a kinetic solubility of 38.7 µg/mL (≈ 111 µM).
As for `COC(=O)c1cc2c(=O)c3ccccc3oc2nc1/C=C/N(C)C`, the figure is 30.1 µg/mL (≈ 92.8 µM).
To `CN(C)CCCN1C(=O)c2cccc3cccc(c23)C1=O` belongs over 42.4 µg/mL; to `O=C(CCNC(=O)c1ccccc1)Nc1ccc(Cl)c(S(=O)(=O)N2CCCCC2)c1`, 29.8 µg/mL (≈ 66.2 µM).
To `CCCCn1c(=O)[nH]c2c(oc3ccccc32)c1=O` belongs 1.7 µg/mL (≈ 6.58 µM).
Compound `C=CCn1c(SCC(=O)NC2(C)CCS(=O)(=O)C2)nc2ccccc21` (configuration not stated) displayed a kinetic solubility of over 56.9 µg/mL.
In turn, `Cc1ccc(N2CC(C(=O)Nc3ccccc3N3CCCC3)CC2=O)cc1` (configuration not stated) gave a solubility (kinetic) of 21.4 µg/mL (≈ 58.9 µM).
In turn, `Cc1cc(S(=O)(=O)NCc2cccnc2)ccc1F` displayed a kinetic solubility of 33.7 µg/mL (≈ 120 µM).
On to `Cc1ccc(SCC(=O)NC2CC2)cc1`, for which the kinetic solubility is over 33.2 µg/mL.
The compound `O=C(Cc1ccccc1)c1c[nH]c(C(=O)NC2CCCC2)c1` had a kinetic solubility of 2.6 µg/mL (≈ 8.77 µM).
Regarding `COc1cccc(C(CNC(=O)c2ccc(Cl)c(S(=O)(=O)N3CCCC3)c2)N(C)C)c1` (configuration not stated), the solubility (kinetic) is over 69.9 µg/mL.
As for `O=C(CCNC(=O)c1ccc(Br)cc1)Nc1ccc(S(=O)(=O)N2CCOCC2)cc1`, the figure is 5.3 µg/mL (≈ 10.7 µM); as for `O=C(Nc1nncs1)c1cc(-c2ccco2)nc2ccccc12`, over 48.4 µg/mL; as for `O=C1C2C3CCC(CC3)C2C(=O)N1c1ccccc1` (configuration not stated), 11.6 µg/mL (≈ 45.4 µM).
As for `Cn1c(=O)n(C)c2cc(NC(=O)CSc3ccccc3)ccc21`, the figure is over 49.1 µg/mL; as for `O=C(Nc1ncc([N+](=O)[O-])s1)c1ccccc1Br`, 41.1 µg/mL (≈ 125 µM).
As for `COCCn1c(N)c(Sc2ccc(Cl)cc2)c(=O)[nH]c1=O`, the figure is 47.4 µg/mL (≈ 145 µM).
`CCC(C)[C@H](NC(=O)NCCC1=CCCCC1)C(=O)O` (some centres not stated) displayed a kinetic solubility of 38.2 µg/mL (≈ 135 µM).
`Cc1ccccc1C(=O)c1cccn1CC(=O)N1CCCCC1` gave a kinetic solubility of over 46.6 µg/mL.
In turn, `Cc1cnc(NCCc2ccccc2)s1` displayed a solubility (kinetic) of 23 µg/mL (≈ 105 µM).
The compound `O=C(C1CC(=O)N(c2ccccc2F)C1)N1CCOCC1` (configuration not stated) showed a solubility (kinetic) of over 43.8 µg/mL.
Compound `CCOc1cc(/C=C2\NC(=O)NC2=O)cc([N+](=O)[O-])c1O` displayed a kinetic solubility of over 44 µg/mL.
`CC1(NC(=O)C2CCCCC2)CCS(=O)(=O)C1` (configuration not stated) came in with a kinetic solubility of 35.1 µg/mL (≈ 135 µM).
Compound `CCN(Cc1cc2cc(C)ccc2[nH]c1=O)C(=O)c1cccc([N+](=O)[O-])c1` returned a solubility (kinetic) of 11.5 µg/mL (≈ 31.5 µM).
As for `COc1ccccc1OCc1ccc(C(=O)NC(C)c2ccccc2)o1` (configuration not stated), the figure is 38.1 µg/mL (≈ 108 µM).
The compound `O=C1CSC(c2ccc(F)c(F)c2)N1c1ccccc1F` (configuration not stated) registered a solubility (kinetic) of 38.3 µg/mL (≈ 124 µM).
As to `CC(C)COc1ncnc2c1sc1nc3c(cc12)COC(C)(C)C3`, the kinetic solubility came out at 3.7 µg/mL (≈ 10.8 µM).
The compound `CC(C)(C)c1ccc(NC(=O)COC(=O)C2CCCC2)cc1` displayed a kinetic solubility of 13.5 µg/mL (≈ 44.5 µM).
As for `CC(C)N(C(C)C)S(=O)(=O)c1ccc(Cl)nc1`, the figure is 32.4 µg/mL (≈ 117 µM); as for `CC(C)Nc1nc(SC(C)C(=O)Nc2ccccc2)nc(N(C)C)n1` (configuration not stated), 26.5 µg/mL (≈ 73.5 µM); as for `CCN1CCC(N2CCN(c3ccc(F)cc3)CC2)CC1`, 35.5 µg/mL (≈ 122 µM).
As for `COc1ccc(-c2csc(N(C)C(=O)c3ccco3)n2)cc1`, the figure is under 0.3 µg/mL; as for `CN(C)CCSc1nc(-c2ccccc2)nc2c1CCCC2`, 17.9 µg/mL (≈ 57.1 µM).
Consider `Cc1ccc(C(=O)CCC(=O)Nc2ncccc2C)cc1`, for which the solubility (kinetic) was over 42.4 µg/mL.
As to `Cc1ccc(C)c(N(CC(=O)N2CCCC2)S(C)(=O)=O)c1`, the solubility (kinetic) worked out at 35.8 µg/mL (≈ 115 µM).
To `Cc1csc(Nc2nc(N)c(C(=O)Nc3ccccc3)o2)n1` belongs 3.3 µg/mL (≈ 10.5 µM); to `O=C(O)C1CCCCC1C(=O)NCCc1ccc(F)cc1` (configuration not stated), over 44 µg/mL; to `CCCc1ccc(C(=O)O/N=C(\N)c2ccccn2)cc1`, 3.1 µg/mL (≈ 10.9 µM).
On to `Nc1ccc(C(=O)CC(=O)Nc2ccc(Cl)cc2)cc1`, for which the kinetic solubility amounted to 14.3 µg/mL (≈ 49.5 µM).
`O=C(O)c1ccccc1-c1cc2ccccc2[nH]1`: the solubility (kinetic) was determined as 29.9 µg/mL (≈ 126 µM).
For the compound `O=C(N/N=C/c1ccc2c(c1)OCO2)C1CC1`, the kinetic solubility was over 34.8 µg/mL.
With `CC(C)c1ccc(NC(=S)NCc2ccc3c(c2)OCO3)cc1`, the kinetic solubility amounted to 4.9 µg/mL (≈ 14.9 µM).
To `CSc1cccc(NC(=O)CC2Oc3ccccc3NC2=O)c1` (configuration not stated) belongs 1.8 µg/mL (≈ 5.48 µM); to `CC(=O)N1CCN(c2ccccc2NC(=O)COc2ccccc2C)CC1`, 49.7 µg/mL (≈ 135 µM); to `COc1ccc2ccccc2c1CN(C)Cc1ccccc1.O=C(O)C(=O)O`, 53.1 µg/mL.
As for `C/C(Nc1ccccc1C(F)(F)F)=C1/CCOC1=O`, the figure is 18.7 µg/mL (≈ 68.9 µM); as for `CCCN(CCC)S(=O)(=O)c1cc2c3c(c1)CCN3C(=O)CC2`, over 50.5 µg/mL; as for `O=S(=O)(c1ccc(=S)[nH]c1)N1CCCCC1`, 21.9 µg/mL (≈ 84.8 µM).
For `O=C1Nc2ccccc2C1Cc1ccccc1` (configuration not stated), the kinetic solubility is 29 µg/mL (≈ 130 µM).
Regarding `CCc1ccccc1NC(=O)NCc1ccc2c(c1)OCO2`, the solubility (kinetic) was 0.7 µg/mL (≈ 2.35 µM).
On to `COc1cc(SC)ccc1C(=O)Nc1ccc2c(c1)CCC2`, for which the kinetic solubility was 2.2 µg/mL (≈ 7.02 µM).
As for `CCOc1ccc(Cl)cc1S(=O)(=O)NCc1ccccn1`, the solubility (kinetic) was over 49 µg/mL.
`CCOC(=O)C1CNc2cc(S(=O)(=O)CC)ccc2O1` (configuration not stated) yielded a kinetic solubility of over 44.9 µg/mL.
The compound `COc1ccc(Cl)cc1-c1csc(N)n1` displayed a kinetic solubility of 34.1 µg/mL (≈ 142 µM).
On to `CCn1c(C)nnc1SCC(=O)Nc1ccc(C(C)=O)cc1`, for which the kinetic solubility was over 47.8 µg/mL.
As to `COc1ccc(C2C3(C#N)C(N)=NC(OC)(OC)C23C#N)cc1` (configuration not stated), the kinetic solubility is over 46.8 µg/mL.
For the compound `Cl.Clc1cccc(CNCCCSc2ncccn2)c1`, the kinetic solubility was over 49.5 µg/mL.
For `Cc1ccc(NC(=O)C2CCCN(c3cnccn3)C2)c(C)c1` (configuration not stated), the kinetic solubility was over 46.6 µg/mL.
As for `CC1CN(Cc2cc(=O)oc3cc(O)c(Cl)cc23)CC(C)O1` (configuration not stated), the figure is 41 µg/mL (≈ 127 µM); as for `C=CCNC(=S)N1CCN(CCNC2=CC(=O)CC(C)(C)C2)CC1`, over 52.6 µg/mL; as for `CC(CCc1ccccc1)NC(=O)C(=O)c1c[nH]c2ccccc12` (configuration not stated), 0.9 µg/mL (≈ 2.81 µM).
In turn, `Cn1ccnc1C(OC(=O)c1ccccc1)C(F)(F)F` (configuration not stated) registered a solubility (kinetic) of over 42.6 µg/mL.
As for `Cc1cccc(C(=O)NCC(=O)OCC(=O)c2ccc(Cl)s2)c1`, the figure is over 52.8 µg/mL.
Compound `Cn1cccc1C(=O)OCC(=O)Nc1ccc2c(c1)OCCO2` registered a kinetic solubility of 4.8 µg/mL (≈ 15.2 µM).
As for `COC(=O)C1=C(C(=O)OC)SC(=C2C(=S)C(C)(C)N(C(=O)C3CC3)c3ccccc32)S1`, the figure is 11.2 µg/mL (≈ 23.5 µM); as for `O=c1[nH]c(=S)n(-c2ccc(F)cc2)c(O)c1/C=N/N1CCOCC1`, over 52.6 µg/mL; as for `O=C(OCC(=O)N1CCCCCC1)c1ccc(F)cc1F`, 44.4 µg/mL (≈ 149 µM).
`Cc1ccc(NCC(=O)N/N=C/c2cc(O)ccc2[N+](=O)[O-])cc1` yielded a solubility (kinetic) of over 49.2 µg/mL.
As to `CCOc1cc(CN2CCCCCC2)ccc1OC`, the solubility (kinetic) is 27.4 µg/mL (≈ 104 µM).
Turning to `Cc1cc(C(=O)COc2cc(F)ccc2[N+](=O)[O-])c(C)n1C1CC1`, the solubility (kinetic) came out at 3.3 µg/mL (≈ 9.93 µM).
To `COc1ccc2c(c1)C(=O)N(c1ccc(C)cc1C)C(=O)C2(C)C` belongs 5.3 µg/mL (≈ 16.4 µM); to `Cl.Clc1cccc(N2CCNCC2)c1`, over 35 µg/mL; to `CC(=O)N1CCN(c2ccccc2NC(=O)c2ccco2)CC1`, over 47 µg/mL.
To `O=C(CN1CCN(c2ccc(Cl)cc2)CC1)c1ccccc1` belongs 18.7 µg/mL (≈ 59.4 µM); to `COc1ccc(C(=O)NCC(C)(C)CNC(=O)c2ccc(OC)cc2)cc1`, 11 µg/mL (≈ 29.7 µM).
Turning to `CCOC(=O)Cn1cc(Cl)c(=O)c(Cl)c1`, the kinetic solubility was found to be 35.8 µg/mL (≈ 143 µM).
`CC(=O)CCc1ccc(OCCCOc2cccc3cccnc23)cc1` gave a kinetic solubility of 25.5 µg/mL (≈ 73 µM).
The compound `O=C(Nc1ccccc1)c1cn(CCBr)cn1` came in with a kinetic solubility of over 44.1 µg/mL.
To `O=S(=O)(Nc1cccc(CCc2ccccn2)c1)c1cc(Cl)ccc1Cl` belongs 9.2 µg/mL (≈ 22.6 µM); to `Cc1ccccc1CC(=O)Nc1cccnc1`, over 33.9 µg/mL.
The compound `CC(=O)c1cc(F)ccc1OCC(=O)Nc1ccc2c(c1)OCO2` had a solubility (kinetic) of 7.8 µg/mL (≈ 23.5 µM).
`COc1ccc(NC(=O)Cc2c(Cl)cccc2Cl)cn1` yielded a kinetic solubility of 6.2 µg/mL (≈ 19.9 µM).
`COc1ccc(NS(=O)(=O)c2cn(C)cn2)cc1` yielded a kinetic solubility of over 40.1 µg/mL.
For `COC(=O)Cn1c(=O)c(C)nc2ccccc21`, the kinetic solubility is over 34.8 µg/mL.
With `CNC(=O)/C(=C\c1ccco1)NC(=O)c1ccco1`, the kinetic solubility was over 39 µg/mL.

The values are drawn from PubChem BioAssay AID1996.
